Data on 7 compounds can be found in PMC11901561, “Free Radical Scavenging Activity and Inhibition of Enzyme-Catalyzed Oxidation by trans-aryl-Palladium Complexes” (Molecules, 2025).

A short description of test [1]: ABTS radical scavenging test (spectrophotometric, 734 nm). The settings on record: for Radical scavenging activity against ABTS•+: inhibition curve did not converge, EC50 could not be calculated. How it is done:
(§1) Radical scavenging capacity, as an indicator of the antioxidant capacity of compounds against 1,1-diphenyl-2-picrylhydrazyl (DPPH) free radicals and 2,2-azinobis (3-ethyl- enzothiazoline-6-sulfonic acid), ABTS•+ radical cations, was determined using a spectrophotometric assay. Antiradical capacity analysis was performed either on pure MeOH for ABTS or the mixture of MeOH/distilled water (90:10 v/v) for DPPH. For both ABTS and DPPH assays, the stock solutions of complexes were prepared in DMSO. Quercetin was used as an antioxidant standard in the DPPH and ABTS•+ scavenging tests. EC50 is defined as the concentration of compound (µM) required to scavenge 50% of ABTS•+ or DPPH radicals. EC50 values were estimated using nonlinear regression. A lower EC50 value indicates higher antiradical activity.
The ABTS assay was based on the method described by Re et al.. For the generation of ABTS•+ radicals, sodium persulfate (2.45 mM) aqueous solution was mixed with ABTS (7 mM) and incubated overnight in the dark to obtain a dark colored solution. The stock solution of ABTS•+ was then diluted by adding pure methanol (100%) to obtain an absorbance of 0.70 (±0.02) at 734 nm at 30 °C. An aliquot of 0.02 mL of tested compound was added to 1.98 mL of ABTS•+, and the decrease in absorbance was monitored at 734 nm after 30 min [80]. During this reaction, the blue green ABTS radical cation is converted back into its colorless neutral form in the presence of the potential antioxidant molecule. A control consisted of 0.02 mL of DMSO in 1.98 mL of ABTS•+ solution. The reducing capacity was determined according to the following formula:% inhibition = (A control − A Sample) × 100/A Control (1)
(§2) Results were expressed as mean values ± standard deviation (SD). All measurements were replicated three times. EC50 values were calculated with GraphPad Prism 6.0 (GraphPad Software, San Diego, CA, USA) under the application of the function “log (inhibitor) versus normalized response-variable slope” after converting the concentrations into their decimal logarithm. The results were analyzed using Student’s test and a two-way analysis of variance (ANOVA), and a multiple comparison of all data was performed using Tukey’s multiple comparisons test. p < 0.0001 was considered significant.

Test [2] can be described thus: DPPH radical scavenging test (spectrophotometric, 517 nm). The note with it: for EC50 (g Antioxidant/kg DPPH°): EC50 expressed as weight of antioxidant per kg of DPPH radical; for EC50: concentration scavenging 50% of DPPH, 90% MeOH, 30 min, mean ± SD. The method, then:
as §1, with “EC50 is defined as the concentration of compound (µM) required to scavenge 50% of ABTS•+ or DPPH radicals.” left out
The DPPH assay was performed according to the method developed by Brand-Williams et al. slightly modified. A solution of 1 mM DPPH in 90% (v/v) methanol was stirred for 40 min. The absorbance of the solution was adjusted to 0.650 ± 0.020 at 517 nm using fresh 90% (v/v) methanol. Then, 0.02 mL of quercetin taken as a standard or sample was mixed with 1.98 mL of DPPH solution and incubated for 30 min in the dark covered with aluminum foil. When reacting with an antioxidant, the DPPH• radical is converted into DPPH, and its color changes from purple to yellow. The antioxidant effect may be easily evaluated by observing the decrease in visible absorption. The absorbance decrease was monitored at 517 nm after 30 min of incubation with a Hewlett Packard 8453 spectrophotometer. The control consisted of 0.02 mL of DMSO in 1.98 mL of DPPH solution. A similar formula (Equation (1)) was applied to determine the DPPH radical scavenging activity.
as §2
In general terms: The DPPH test is a chemical assay of radical scavenging.

Test [3] can be described thus: Antiradical efficiency (kinetic study via DPPH assay). The settings on record: for AE (antiradical efficiency): AE = 1/EC50.TEC50, DPPH; for TEC50: time needed to reach the steady state at the EC50 concentration, DPPH; for Classification of antiradical efficiency: according to Sanchez-Moreno, from AE value. How it is done:
The reaction between potential antioxidants and the oxidized substrate requires a steady state which will depend on several parameters, such as the reaction time. The time needed to reach the steady state, at the concentration corresponding to EC50, is more and more frequently used and can be defined as TEC50. In brief, TEC50 was determined by plotting the recorded absorbance during the period for the EC50 concentration for the considered antioxidant compound. […] The antiradical efficiency of compounds and their classification are considered according to the work of Sanchez-Moreno [69].

Test [4] deals with T1, horseradish peroxidase (HRP) (Armoracia rusticana, UniProt P00433).
T1 sequence (P00433 31-338 limits assumed): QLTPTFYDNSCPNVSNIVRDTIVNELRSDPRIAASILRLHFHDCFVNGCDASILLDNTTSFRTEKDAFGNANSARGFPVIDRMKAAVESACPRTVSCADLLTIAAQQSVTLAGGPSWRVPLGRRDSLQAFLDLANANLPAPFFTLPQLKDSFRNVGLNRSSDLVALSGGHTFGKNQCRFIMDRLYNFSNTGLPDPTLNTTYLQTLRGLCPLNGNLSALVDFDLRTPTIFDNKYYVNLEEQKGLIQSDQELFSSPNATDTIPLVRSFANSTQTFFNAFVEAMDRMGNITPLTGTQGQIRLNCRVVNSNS
Kind of test: biochemical. It is filed as biochemical. The note with it: for EC50: HRP-H2O2/L-012 system, pH 7.5, 37 °C, 30 min, read-out: EC50 chemiluminescence assay; for Effect on chemiluminescence at lowest concentrations: 1, 5, and 10 µM, HRP-H2O2/L-012. How it is done:
To investigate the effect of selected palladium (II)-based complexes on the peroxidase (HRP)-catalyzed oxidation of the chemiluminescent probe (L-012), in the presence of hydrogen peroxide (H2O2), the chemiluminescence technique was used. Briefly, plate-reader-based luminescence measurements were performed in white 96-well plates using a Fluoroskan Ascent FL microplate reader (Thermo Labsystems, Vantaa, Finland), with the temperature set at 37 °C. To 5 µL of a stock solution of HRP (1 mg/mL) in phosphate buffer (pH = 7.5) per well, we successively added 10 µL of L-012 (aqueous solution, 0.84 mmoL) and 2 µL of tested compound in 163 µL of buffer solution. The reaction was triggered by adding 20 µL hydrogen peroxide (0.19 µM) to reach the final volume of 200 µL. The light emission, produced from oxidation of L-012 by HRP/H2O2 system, in the presence or absence of the tested palladium complex, was recorded in kinetic mode for 30 min. Inhibition of the emitted light due to tested complexes was associated with higher activity. The following formula was applied to calculate the inhibiting activity of complexes towards the oxidation of L-012 catalyzed by the HRP/H2O2 system:% inhibition = (L control − L Sample) x 100/L Control
as §2

The mark [5] stands for this setting: concentration scavenging 50% of ABTS•+, MeOH, 30 min, mean ± SD.

`COc1cc[c]([Pd@SP2]([I])([PH](c2ccccc2)(c2ccccc2)c2ccccc2)[PH](c2ccccc2)(c2ccccc2)c2ccccc2)cc1` [Complex 1, Trans-Iodo(4-methoxyphenyl)bis(triphenylphosphine)Palladium]: in test [1] (setting [5]), the concentration for a half-maximal effect (EC50) (commonly the concentration giving half of the maximal effect) is 0.00578 ± 0.00098 mM. In addition, in test [2], the “EC50 (g Antioxidant/kg DPPH°)” value is recorded as 49.31 ± 39 g Antioxidant/kg DPPH° and the EC50 was 1.14 ± 0.9 µM. Besides, in test [3], the “AE (antiradical efficiency)” value was 1.8437 ×10^−3 and the TEC50 is 11 min. In test [4], the EC50 turned out to be 3.56 ± 1.87 µM.

In the case of `CC(=O)Oc1cc[c]([Pd@SP2]([Cl])([PH](c2ccccc2)(c2ccccc2)c2ccccc2)[PH](c2ccccc2)(c2ccccc2)c2ccccc2)cc1` [Complex 6, Trans-Chloro(4-acethoxyphenyl)bis(triphenylphosphine)Palladium], the EC50 in test [1] (setting [5]) amounted to 0.0458 ± 0.00095 mM. In addition, in test [2], the “EC50 (g Antioxidant/kg DPPH°)” value is listed as 573.94 ± 40 g Antioxidant/kg DPPH° and a half-maximal effect (EC50) was put at 14.3 ± 0.92 µM. In test [3], the “AE (antiradical efficiency)” value was 0.0328 ×10^−3, the “Classification of antiradical efficiency” value is “Low” and the TEC50 is 53 min. The EC50 in test [4] is 6.46 ± 2.28 µM.

Turning to `[Br][Pd@SP2]([c]1ccccc1)([PH](c1ccccc1)(c1ccccc1)c1ccccc1)[PH](c1ccccc1)(c1ccccc1)c1ccccc1` [Complex 8, Trans-Bromo(phenyl)bis(triphenylphosphine)Palladium], in test [1] (setting [5]), the EC50 was found to be 0.0143 ± 0.00092 mM. Besides, the “Activity against the DPPH radical” value in test [2] (100 µM) is given as “good activity”. Further, in test [2], the “EC50 (g Antioxidant/kg DPPH°)” value is listed as 260.96 ± 40 g Antioxidant/kg DPPH° and it took 6.64 ± 0.91 µM to reach a half-maximal effect (EC50). In addition, in test [3], the “AE (antiradical efficiency)” value is reported as 0.0955 ×10^−3, the “Classification of antiradical efficiency” value is recorded as “Low” and the TEC50 is 40 min. For the same compound, in test [4], the “Effect on chemiluminescence at lowest concentrations” value was “weak effect” and the EC50 is 33.3 ± 11.7 µM.

Consider `[Cl][Pd@SP2]([c]1ccccc1)([PH](c1ccccc1)(c1ccccc1)c1ccccc1)[PH](c1ccccc1)(c1ccccc1)c1ccccc1` [Complex 9, Trans-Chloro(phenyl)bis(triphenylphosphine)Palladium], for which, in test [1] (setting [5]), the EC50 amounted to 0.0103 ± 0.00064 mM. Further, in test [2], the “EC50 (g Antioxidant/kg DPPH°)” value amounted to 271.97 ± 36 g Antioxidant/kg DPPH° and the response was half-maximal at 7.33 ± 0.97 µM (EC50). In test [3], the “AE (antiradical efficiency)” value is given as 0.1019 ×10^−3, the “Classification of antiradical efficiency” value was “Low” and the TEC50 is given as 36 min. In test [4], the “Effect on chemiluminescence at lowest concentrations” value is listed as “weak effect” and the EC50 was determined as 39.2 ± 17 µM.

In test [1] (setting [5]), `CC(=O)Oc1cc[c]([Pd@SP2]([Br])([PH](c2ccccc2)(c2ccccc2)c2ccccc2)[PH](c2ccccc2)(c2ccccc2)c2ccccc2)cc1` [Complex 5, Trans-Bromo(4-acethoxyphenyl)bis(triphenylphosphine)Palladium] displayed an EC50 of 0.1358 ± 0.00025 mM. Further, the EC50 in test [1] (value given in text in mM) worked out at 0.135 mM. In test [2], the “EC50 (g Antioxidant/kg DPPH°)” value is given as 653.57 ± 20 g Antioxidant/kg DPPH° and the EC50 stood at 15.5 ± 0.96 µM. For the same compound, in test [3], the “AE (antiradical efficiency)” value is 0.0264 ×10^−3, the “Classification of antiradical efficiency” value is recorded as “Low” and the TEC50 was 58 min. In test [4], the EC50 was 5.28 ± 2.3 µM.

With `N.N.[Cl][Pt][Cl]` [CisPt, Cisplatin, reference compound], the figures for the “Radical scavenging activity against ABTS•+” value in test [1] and in test [1] (listed as Cisplatin (CisPt)) were “no antioxidant activity” and “does not show any radical scavenging activity”, respectively. In addition, in test [2] (inhibition curve did not converge, EC50 could not be calculated), the “Radical scavenging activity against DPPH” value is given as “no antioxidant activity”.

Regarding `COc1cc[c]([Pd@SP2]([Cl])([PH](c2ccccc2)(c2ccccc2)c2ccccc2)[PH](c2ccccc2)(c2ccccc2)c2ccccc2)cc1` [Complex 3, Trans-Chloro(4-methoxyphenyl) bis(triphenylphosphine)Palladium], the response in test [1] (setting [5]) was half-maximal at 0.0111 ± 0.00094 mM (EC50). In addition, in test [2], the “EC50 (g Antioxidant/kg DPPH°)” value is on record as 73.49 ± 38 g Antioxidant/kg DPPH° and the EC50 is 1.9 ± 0.87 µM. Moreover, in test [3], the “AE (antiradical efficiency)” value is reported as 0.2160 ×10^−3 and the “Classification of antiradical efficiency” value is recorded as “Low”. For the same compound, the EC50 in test [4] is 5.8 ± 2.6 µM.
